Columns and labels:
MCF7 [1] = experiment: Cytotoxicity against human MCF7 cells assessed as decrease in cell viability after 5 days by celltiterGlo assay; type: functional, cell-based; conditions: MCF7, 120 h
MCF7 [2] = experiment: Decrease in estrogen receptor alpha level in human MCF7 cells after 4 hrs by in-cell western assay; type: functional, cell-based; conditions: MCF7, 4 h
MCF7 [3] = experiment: Decrease in estrogen receptor alpha level in human MCF7 cells after 4 hrs by in-cell western assay relative to fulvestrant; type: functional; conditions: MCF7, 4 h
[4] = AUC in CD-1 mouse at 10 mg/kg, po; type: ADME, organism-based; conditions: in vivo
[5] = Fraction unbound in CD-1 mouse plasma by equilibrium dialysis; type: ADME, cell-free
Rattus norvegicus = experiment: Decrease in uterine wet weight of CD-IGS rat at 1 mg/kg, po qd followed 15 mins later administration of 0.1 mg/kg, po 17alpha-ethynylestradiol for 3 consecutive days; type: functional

Row | EC50 (MCF7 [2]) | AUC [4] | fraction unbound [5] | SMILES | IC50 (MCF7 [1]) | Emax (MCF7 [3]) | inhibition (INH) (Rattus norvegicus)
1 | 9.3 nM | – | – | O=C(O)/C=C/c1ccc(/C(=C(\c2ccccc2)C2CCCC2)c2ccc3[nH]ncc3c2)cc1 | 10 nM | 90% | –
2 | 0.8 nM | 0.19 µg·h/mL | – | Cc1cccnc1/C(=C(\c1ccc(/C=C/C(=O)O)cc1)c1ccc2[nH]nc(F)c2c1)C1CCC1 | 4.2 nM | 88% | –
3 | 4.3 nM | – | – | CC(C)/C(=C(/c1ccc(/C=C/C(=O)O)cc1)c1ccc2[nH]ncc2c1)c1ccccc1 | 4 nM | 91% | –
4 | 0.3 nM | 0.76 µg·h/mL | 0.021 | N#Cc1cc(F)ccc1/C(=C(\c1ccc(/C=C/C(=O)O)cc1)c1ccc2[nH]nc(F)c2c1)C1CCC1 | 1.2 nM | 92% | 57%
5 | 4.7 nM | – | – | O=C(O)/C=C/c1ccc(/C(=C(\c2ccccc2)C(F)F)c2ccc3[nH]ncc3c2)cc1 | 14 nM | 91% | –
6 | 0.9 nM | 0.14 µg·h/mL | – | CS(=O)(=O)c1ccc(/C(=C(\c2ccc(/C=C/C(=O)O)cc2)c2ccc3[nH]nc(F)c3c2)C2CCC2)c(Cl)c1 | 2.3 nM | 91% | 29%
7 | 7.6 nM | – | – | O=C(O)/C=C/c1ccc(/C(=C(\c2ccccn2)C2CCC2)c2ccc3[nH]nc(F)c3c2)cc1 | 22 nM | 90% | –
8 | 1.1 nM | 0.07 µg·h/mL | 0.1 | N#Cc1cnccc1/C(=C(\c1ccc(/C=C/C(=O)O)cc1)c1ccc2[nH]nc(F)c2c1)C1CCC1 | 3.8 nM | 92% | 22%
9 | 25 nM | – | – | O=C(O)/C=C/c1ccc(/C(=C(\c2ccccc2)C2CCCCC2)c2ccc3[nH]ncc3c2)cc1 | 64 nM | 86% | –
10 | 47 nM | – | – | COCC/C(=C(/c1ccc(/C=C/C(=O)O)cc1)c1ccc2[nH]ncc2c1)c1ccccc1 | 63 nM | 92% | –
11 | 11 nM | – | – | CCCC/C(=C(/c1ccc(/C=C/C(=O)O)cc1)c1ccc2[nH]ncc2c1)c1ccccc1 | 10 nM | 92% | –
12 | 18 nM | – | – | CC/C(=C(/c1ccc(/C=C/C(=O)O)cc1)c1cc(Cl)c2[nH]ncc2c1)c1ccccc1 | 56 nM | 92% | –
13 | 0.3 nM | – | – | O=C(O)/C=C/c1ccc(/C(=C(\c2ccccc2)C2CCC2)c2ccc3[nH]ncc3c2)cc1 | 1.4 nM | 89% | –
14 | 0.8 nM | 18 µg·h/mL | – | CC/C(=C(/c1ccc(/C=C/C(=O)O)cc1)c1ccc2[nH]ncc2c1Cl)c1ccccc1 | 1.6 nM | 93% | –
15 | 0.8 nM | 15.6 µg·h/mL | 0.011 | O=C(O)/C=C/c1ccc(/C(=C(\c2ncc(Cl)cc2Cl)C2CCC2)c2ccc3[nH]nc(F)c3c2)cc1 | 3.5 nM | 91% | 80%
16 | 0.4 nM | 11.1 µg·h/mL | 0.003 | O=C(O)/C=C/c1ccc(/C(=C(\c2ccccc2Cl)C2CCC2)c2ccc3[nH]nc(F)c3c2)cc1 | 1.1 nM | 90% | 82%
17 | 19 nM | – | – | CC/C(=C(/c1ccc(/C=C/C(=O)O)cc1)c1cc(C)c2[nH]ncc2c1)c1ccccc1 | 59 nM | 89% | –
18 | 0.5 nM | 0.5 µg·h/mL | – | CC/C(=C(/c1ccc(/C=C/C(=O)O)cc1)c1ccc2[nH]ncc2c1C#N)c1ccccc1 | 1.5 nM | 91% | –
19 | 3 nM | – | – | O=C(O)/C=C/c1ccc(/C(=C(\c2ccc(C(F)(F)F)cc2Cl)C2CCC2)c2ccc3[nH]nc(F)c3c2)cc1 | 8.2 nM | 94% | –
20 | > 1000 nM | – | – | O=C(O)/C=C/c1ccc(/C(=C(/CCO)c2ccccc2)c2ccc3[nH]ncc3c2)cc1 | > 1000 nM | – | –

Row | EC50 (MCF7 [2]) | AUC [4] | fraction unbound [5] | SMILES | IC50 (MCF7 [1]) | Emax (MCF7 [3]) | inhibition (INH) (Rattus norvegicus)
21 | 0.6 nM | – | – | O=C(O)/C=C/c1ccc(/C(=C(\c2ncc(F)cc2Cl)C2CCC2)c2ccc3[nH]nc(F)c3c2)cc1 | 1.7 nM | 89% | –
22 | – | – | – | CC/C(=C(/c1ccc(/C=C/C(=O)O)cc1)c1ccc2[nH]ncc2c1)c1ccccc1 | 7.2 nM | 90% | –
23 | 0.9 nM | 8.2 µg·h/mL | – | CC/C(=C(/c1ccc(/C=C/C(=O)O)cc1)c1ccc2[nH]ncc2c1F)c1ccccc1 | 3 nM | 89% | –
24 | 0.6 nM | – | – | O=C(O)/C=C/c1ccc(/C(=C(\c2ccc(F)cc2Cl)C2CCC2)c2ccc3[nH]nc(F)c3c2)cc1 | 2 nM | 91% | –
25 | 4.6 nM | – | – | CCC/C(=C(/c1ccc(/C=C/C(=O)O)cc1)c1ccc2[nH]ncc2c1)c1ccccc1 | 11 nM | 92% | –
26 | 6.4 nM | – | – | CC/C(=C(/c1ccc(/C=C/C(=O)O)cc1)c1cc(F)c2[nH]ncc2c1)c1ccccc1 | 7.5 nM | 92% | –
27 | 1.4 nM | – | – | O=C(O)/C=C/c1ccc(/C(=C(/CCCl)c2ccccc2)c2ccc3[nH]ncc3c2)cc1 | 9 nM | 90% | –
28 | 3.1 nM | – | – | O=C(O)/C=C/c1ccc(/C(=C(\c2ccccc2)C(F)(F)F)c2ccc3[nH]ncc3c2)cc1 | 5.5 nM | 92% | –
29 | 1.1 nM | 14 µg·h/mL | – | CC/C(=C(/c1ccc(/C=C/C(=O)O)cc1)c1ccc2[nH]nc(F)c2c1)c1ccccc1 | 5 nM | 90% | –
30 | 19 nM | – | – | CC/C(=C(/c1ccc(/C=C/C(=O)O)cc1)c1ccc2[nH]ncc2c1OC)c1ccccc1 | 55 nM | 91% | –
31 | 20 nM | – | – | CC/C(=C(/c1ccc(/C=C/C(=O)O)cc1)c1ccc2[nH]ncc2n1)c1ccccc1 | 33 nM | 88% | –
32 | 0.4 nM | 0.25 µg·h/mL | – | N#Cc1cc(Cl)cnc1/C(=C(\c1ccc(/C=C/C(=O)O)cc1)c1ccc2[nH]nc(F)c2c1)C1CCC1 | 1.1 nM | 93% | –
33 | 26 nM | – | – | C/C(=C(/c1ccc(/C=C/C(=O)O)cc1)c1ccc2[nH]ncc2c1)c1ccccc1 | 40 nM | 92% | –
34 | 35 nM | – | – | COC/C(=C(/c1ccc(/C=C/C(=O)O)cc1)c1ccc2[nH]ncc2c1)c1ccccc1 | 88 nM | 86% | –
35 | 2.8 nM | – | – | O=C(O)/C=C/c1ccc(/C(=C(\c2ccccc2)C2CC2)c2ccc3[nH]ncc3c2)cc1 | 13 nM | 89% | –
36 | – | – | 0.011 | CC/C(=C(/c1ccc(/C=C/C(=O)O)cc1)c1ccc2[nH]ncc2c1)c1ccc(F)cc1Cl [BRILANESTRANT] | 2.5 nM | 90% | 79%
37 | 0.3 nM | 0.69 µg·h/mL | 0.048 | O=C(O)/C=C/c1ccc(/C(=C(\c2ncccc2C(F)(F)F)C2CCC2)c2ccc3[nH]nc(F)c3c2)cc1 | 1.1 nM | 89% | –
38 | 13 nM | – | – | CC/C(=C(/c1ccc(/C=C/C(=O)O)cc1)c1ccc2[nH]ncc2c1C)c1ccccc1 | 50 nM | 90% | –
39 | 1.4 nM | – | – | O=C(O)/C=C/c1ccc(/C(=C(/CCF)c2ccccc2)c2ccc3[nH]ncc3c2)cc1 | 2.1 nM | 91% | –

Row | SMILES | EC50 (MCF7 [2]) | AUC [4] | fraction unbound [5] | IC50 (MCF7 [1]) | Emax (MCF7 [3]) | inhibition (INH) (Rattus norvegicus)
40 | C[C@]12CC[C@@H]3c4ccc(O)cc4C[C@@H](CCCCCCCCC[S+]([O-])CCCC(F)(F)C(F)(F)F)[C@H]3[C@@H]1CC[C@@H]2O (stereo partly specified) [FULVESTRANT] | 0.4 nM | – | – | 0.6 nM | 100% | –
